In the oligonucleotide strings, read from the 5' end, every base follows the letter of its sugar. An asterisk marks phosphorothioate; unmarked linkages are phosphodiester. Other units and linkages are bracketed, terminal groups are in braces. A string of capitals states the bases alone. e = 2'-O-(2-methoxyethyl) (MOE); [5mC] = 5-methylcytosine; d = 2'-deoxy (DNA)
Columns and labels:
Type in all cases: in vivo
[1] = Tolerability in CD1 mice: liver function (Example 17); design: Albumin: unit not given here; settings: plasma, 50 mg/kg s.c. twice a week, 50 mg/kg
[2] = Tolerability in CD1 mice: kidney function (Example 17); settings: plasma, 50 mg/kg s.c. twice a week
Source text: Results are presented in Tables 62 and 63, expressed in mg/dL.

[3] = Tolerability in CD1 mice: hematology assays (Example 17); settings: for lymphocyte count / monocyte count / neutrophil count: percent of total blood cell count; for HCT / MCH / MCHC / MCV / WBC count: blood, 50 mg/kg s.c. twice a week
Description: A control group of five mice was injected subcutaneously with PBS for 2 weeks. All experimental groups (i.e. ASO treated mice at 2, 4, 6 weeks) were compared to the control group (i.e. PBS, 2 weeks).
Blood obtained from all mice groups were sent to Antech Diagnostics for hematocrit (HCT), mean corpuscular volume (MCV), mean corpuscular hemoglobin (MCH), and mean corpuscular hemoglobin concentration (MCHC) measurements and analyses, as well as measurements of the various blood cells, such as WBC (neutrophils, lymphocytes, and monocytes), RBC, and platelets, and total hemoglobin content. Percentages given in the tables indicate the percent of total blood cell count.

[4] = Tolerability in Sprague-Dawley rats: liver function (Example 19); settings: plasma, 50 mg/kg s.c. twice per week for 6 weeks, 50 mg/kg
Source text: (§1) Urine samples were taken before the start of treatment.

[5] = Tolerability in Sprague-Dawley rats: kidney function (Example 19); settings: Sprague-Dawley rats, plasma, 50 mg/kg s.c. twice per week for 6 weeks; 50 mg/kg
Source text: as §1

[6] = Tolerability in Sprague-Dawley rats: hematology assays (Example 19); settings: 50 mg/kg s.c. twice per week for 6 weeks; for Lymphocytes / Monocytes / Neutrophils / RBC / Hemoglobin / MCHC: 50 mg/kg; for MCH / Hemoglobin / MCHC: title says % control
Source text: as §1

[7] = as above; settings: 50 mg/kg s.c. twice per week for 6 weeks, 50 mg/kg; for HCT / MCV: title says % control

## GCCCTTCATGTCTAGGTCCA [ISIS 416825] (eG*e[5mC]*e[5mC]*e[5mC]*eT*dT*d[5mC]*dA*dT*dG*dT*d[5mC]*dT*dA*dG*eG*eT*e[5mC]*e[5mC]*eA) [5-10-5 MOE gapmer]
[1]; 2 weeks
  ALT: 64 IU/L
  AST: 82 IU/L
  Albumin: 3.6
  Bilirubin: 0.41 mg/dL
[1]; 4 weeks
  ALT: 314 IU/L
  AST: 239 IU/L
  Albumin: 3.4
  Bilirubin: 0.69 mg/dL
[1]; 6 weeks
  ALT: 507 IU/L
  AST: 301 IU/L
  Albumin: 3.5
  Bilirubin: 0.29 mg/dL
[2]; 2 weeks, 50 mg/kg
  BUN: 29 mg/dL
  creatinine: 0.14 mg/dL
[2]; 4 weeks, 50 mg/kg
  BUN: 35 mg/dL
  creatinine: 0.21 mg/dL
[2]; 6 weeks
  creatinine: 0.17 mg/dL
[2]; 6 weeks, 50 mg/kg
  BUN: 31 mg/dL
[3]; 2 weeks
  RBC count: 9 cells/pL
  hemoglobin content: 14.5 g/dL
  platelet count: 1689 cells/nL
  lymphocyte count: 82%
  monocyte count: 2%
  neutrophil count: 15%
[3]; 4 weeks
  RBC count: 9 cells/pL
  hemoglobin content: 14.1 g/dL
  platelet count: 1229 cells/nL
  lymphocyte count: 53%
  monocyte count: 5%
  neutrophil count: 43%
  MCH: 16 pg
  WBC count: 8 cells/nL
[3]; 6 weeks
  RBC count: 8 cells/pL
  hemoglobin content: 12.1 g/dL
  platelet count: 942 cells/nL
  lymphocyte count: 71%
  monocyte count: 4%
  neutrophil count: 23%
[3]; 2 weeks, 50 mg/kg
  HCT: 49%
  MCH: 17 pg
  MCHC: 29%
  MCV: 58 fL
  WBC count: 8 cells/nL
[3]; 4 weeks, 50 mg/kg
  HCT: 46%
  MCHC: 31%
  MCV: 53 fL
[3]; 6 weeks, 50 mg/kg
  HCT: 40%
  MCH: 15 pg
  MCHC: 31%
  MCV: 51 fL
  WBC count: 6 cells/nL
[4]
  ALT: 89 IU/L
  AST: 17 IU/L
  Albumin: 2 mg/dL
  Bilirubin: 4 mg/dL
[5]
  BUN: 7 mg/dL
  creatinine: 17 mg/dL
[6]
  Lymphocytes: 3%
  Monocytes: 15%
  Neutrophils: 25%
  RBC: 2 pL⁻¹
  MCH: 2 pg
  Hemoglobin: 2 g/dL
  MCHC: 4%
[7]
  Platelets: 6 10^3/μL
  WBC: 22 nL⁻¹
  HCT: 2%
  MCV: 4 fL

## GCCCTTCATGTCTAGGTCCA [ISIS 416892] (eG*e[5mC]*e[5mC]*d[5mC]*dT*dT*d[5mC]*dA*dT*dG*dT*d[5mC]*dT*dA*dG*dG*dT*e[5mC]*e[5mC]*eA) [3-14-3 MOE gapmer]
[1]; 2 weeks
  ALT: 66 IU/L
  AST: 121 IU/L
  Albumin: 3.2
  Bilirubin: 0.38 mg/dL
[1]; 4 weeks
  ALT: 1526 IU/L
  AST: 1347 IU/L
  Albumin: 4.0
  Bilirubin: 2.99 mg/dL
[1]; 6 weeks
  ALT: 1939 IU/L
  AST: 1443 IU/L
  Albumin: 4.4
  Bilirubin: 0.50 mg/dL
[2]; 2 weeks, 50 mg/kg
  BUN: 19 mg/dL
  creatinine: 0.11 mg/dL
[2]; 4 weeks, 50 mg/kg
  BUN: 28 mg/dL
  creatinine: 0.20 mg/dL
[2]; 6 weeks
  creatinine: 0.17 mg/dL
[2]; 6 weeks, 50 mg/kg
  BUN: 23 mg/dL
[3]; 2 weeks
  RBC count: 7 cells/pL
  hemoglobin content: 13.0 g/dL
  platelet count: 1687 cells/nL
  lymphocyte count: 79%
  monocyte count: 3%
  neutrophil count: 19%
[3]; 4 weeks
  RBC count: 9 cells/pL
  hemoglobin content: 13.5 g/dL
  platelet count: 636 cells/nL
  lymphocyte count: 52%
  monocyte count: 6%
  neutrophil count: 43%
  MCH: 16 pg
  WBC count: 8 cells/nL
[3]; 6 weeks
  RBC count: 9 cells/pL
  hemoglobin content: 13.1 g/dL
  platelet count: 1004 cells/nL
  lymphocyte count: 64%
  monocyte count: 7%
  neutrophil count: 28%
[3]; 2 weeks, 50 mg/kg
  HCT: 48%
  MCH: 18 pg
  MCHC: 30%
  MCV: 59 fL
  WBC count: 5 cells/nL
[3]; 4 weeks, 50 mg/kg
  HCT: 42%
  MCHC: 32%
  MCV: 49 fL
[3]; 6 weeks, 50 mg/kg
  HCT: 45%
  MCH: 16 pg
  MCHC: 30%
  MCV: 53 fL
  WBC count: 9 cells/nL
[4]
  ALT: 113 IU/L
  AST: 183 IU/L
  Albumin: 8 mg/dL
  Bilirubin: 1 mg/dL
[5]
  BUN: 188 mg/dL
  creatinine: 1 mg/dL
[6]
  Lymphocytes: 18%
  Monocytes: 58%
  Neutrophils: 92%
  RBC: 12 pL⁻¹
  MCH: 2 pg
  Hemoglobin: 14 g/dL
  MCHC: 0%
[7]
  Platelets: 66 10^3/μL
  WBC: 68 nL⁻¹
  HCT: 13%
  MCV: 1 fL

From US20120083522A1, “MODULATION OF INFLAMMATORY RESPONSES BY FACTOR XI” (Isis Pharmaceuitcals, inc., priority 2009, published 2012)
